Assay [1] concerns the target T1, membrane-bound GCs (pGC) (Rattus norvegicus, UniProt P18910).
T1 sequence (P18910 29-1057): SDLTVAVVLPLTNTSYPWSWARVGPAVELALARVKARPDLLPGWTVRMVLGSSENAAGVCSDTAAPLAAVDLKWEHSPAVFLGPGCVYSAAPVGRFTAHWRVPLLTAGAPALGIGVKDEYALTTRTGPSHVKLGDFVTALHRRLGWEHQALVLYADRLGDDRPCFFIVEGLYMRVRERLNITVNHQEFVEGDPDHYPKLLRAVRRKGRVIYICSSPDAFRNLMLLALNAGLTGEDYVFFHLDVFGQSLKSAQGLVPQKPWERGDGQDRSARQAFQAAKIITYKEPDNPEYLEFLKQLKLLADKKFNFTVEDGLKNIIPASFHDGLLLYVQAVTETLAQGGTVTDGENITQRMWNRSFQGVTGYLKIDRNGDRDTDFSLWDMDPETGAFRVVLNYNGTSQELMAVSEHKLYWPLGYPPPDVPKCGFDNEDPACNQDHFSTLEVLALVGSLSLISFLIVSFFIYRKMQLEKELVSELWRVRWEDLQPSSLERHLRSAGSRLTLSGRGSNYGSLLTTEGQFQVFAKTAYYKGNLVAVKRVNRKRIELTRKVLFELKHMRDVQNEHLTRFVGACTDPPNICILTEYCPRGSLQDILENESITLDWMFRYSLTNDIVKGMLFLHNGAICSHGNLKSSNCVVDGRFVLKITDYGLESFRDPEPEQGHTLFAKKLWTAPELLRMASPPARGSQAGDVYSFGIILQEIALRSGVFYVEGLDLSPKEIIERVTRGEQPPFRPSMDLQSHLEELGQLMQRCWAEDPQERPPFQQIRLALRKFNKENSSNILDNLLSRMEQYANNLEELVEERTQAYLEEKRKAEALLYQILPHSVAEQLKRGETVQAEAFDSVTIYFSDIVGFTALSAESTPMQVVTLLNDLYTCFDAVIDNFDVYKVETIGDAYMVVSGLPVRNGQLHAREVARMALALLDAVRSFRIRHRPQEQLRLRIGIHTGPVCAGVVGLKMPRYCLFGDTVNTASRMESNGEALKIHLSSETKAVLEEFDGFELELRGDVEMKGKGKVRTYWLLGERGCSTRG
Nature of the assay: Particulate guanylate cyclase assay in purified rat lung membranes. The assay is classed as biochemical. The protocol:
Purified rat lung membranes (20 μg protein/200 μL) were incubated in Tris buffer with 10 mM phosphocreatine, 10 units/mL creatine phosphokinase, and 10 μM ODQ to inhibit NO-activated GC. The reaction took place with 0.3 mM MgCl, 0.5 mM MgATP, and 1 mM MgGTP, at 37 °C. The compound was added and 1 μM ANP used to activate pGC. cGMP formation was allowed to proceed for 10.5–12.5 min and was subsequently measured by radioimmunoassay.

The target of assay [2] is T2, sGCcat (Homo sapiens, UniProt Q02108+Q02153).
T2 construct: a smaller construct of the catalytic domain (sGCcat)
T2 sequence (Q02108 481-608 limits assumed): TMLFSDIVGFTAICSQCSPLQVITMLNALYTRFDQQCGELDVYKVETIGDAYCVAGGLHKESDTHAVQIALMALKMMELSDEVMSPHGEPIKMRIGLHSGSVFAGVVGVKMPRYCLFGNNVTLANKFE
T2 sequence (Q02153 421-554 limits assumed): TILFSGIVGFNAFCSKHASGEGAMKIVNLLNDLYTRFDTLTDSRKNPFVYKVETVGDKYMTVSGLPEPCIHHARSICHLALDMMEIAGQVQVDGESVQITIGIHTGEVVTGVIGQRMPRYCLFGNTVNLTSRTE
As to the kind of experiment: SPR binding to catalytic domain of sGC. The method, then:
We have previously described a surface plasmon resonance-based assay for the detection of binding of small molecules to full-length sGC and a smaller construct of the catalytic domain (sGCcat).[24] This assay was used to measure the binding of the compounds to sGCcat.[24] […] The position of the hydroxyl group can be changed whilst retaining binding strength and activity.
Surface plasmon resonance (SPR) experiments were performed with a Biacore T200 instrument at 25 °C. Data processing and analysis were performed using BIAevaluation software and Scrubber2. All sensorgrams were double referenced by subtracting the response in a reference flowcell and a blank sample. Materials and methods used were the same as previously published.[24]
Background: Surface plasmon resonance follows binding to a sensor surface in real time, without labels.

Entries after “also recorded” stand apart in the source; their conditions may differ. Read-outs that look alike come from different tables or passages of the source.

Usually Hill slope stands for a measure of the steepness of the concentration-response curve. What is called IC50 is the concentration that inhibits the measured activity by half. Low values mean inhibition by little substance, high ones a need for much substance. Usually Kd stands for the constant that tells how readily two partners part at equilibrium. Read a high Kd as a looser complex. Consider `O=[N+]([O-])c1ccc2nc(Nc3ccc(O)cc3)c(Nc3ccc(O)cc3)nc2c1` [Compound 10, 4,4′-((6-Nitroquinoxaline-2,3-diyl)bis(azanediyl))diphenol], for which the Hill slope in assay [1] (Basal (listed under ANP group)) came out at 2; in assay [1] (GC activator ANP 10 nM) it was 2; in assay [1] (GC activator ANP 1 μM) it was 1. Further, the IC50 worked out at 15 ± 2 µM in assay [1] (Basal (listed under ANP group)); 21 ± 3 µM in assay [1] (GC activator ANP 10 nM, rat lung membranes, 10 μM ODQ); 25 ± 13 µM in assay [1] (GC activator ANP 1 μM, rat lung membranes, 10 μM ODQ). In addition, the “inhibition of pGC-generated cGMP (in words)” value in assay [1] (rat lung membranes, atrial natriuretic peptide stimulation, 10 μM ODQ) is “showed inhibition; also recorded: Inhibition of particulate GC was also observed”. Moreover, the Kd in assay [2] was 11.4 ± 1.8 µM; in assay [2] (listed as D12), 11 µM. In addition, the “sGCcat (SPR) binding norm. resp. (RU)” value in assay [2] (Biacore T200, 25 °C) turned out to be 14.4 ± 1.7 RU. In addition, in assay [2] (discussion of Table 1), the “binding to sGCcat (in words)” value was “higher binding”.

For the origin of these results see PMC4558462, “A new small molecule inhibitor of soluble guanylate cyclase” (Bioorganic & Medicinal Chemistry, 2015).
